# Test: Lipophilicity, log P of the compound
# Format: physicochemical
# Conditions: octanol/water
smiles,measurement,value
CC1(C)C(C=C(Cl)Cl)C1C(=O)OCc1cccc(Oc2ccccc2)c1 (stereo unspecified) [PERMETHRIN],logP,> 5
O=c1[nH]cc(F)c(=O)[nH]1 [FLUOROURACIL],logP,1 to 4
NC(N)=O [UREA],logP,1 to 4
Clc1ccc(COC(Cn2ccnc2)c2ccc(Cl)cc2Cl)c(Cl)c1 (stereo unspecified) [MICONAZOLE],logP,> 5
CN(C/C=C/C#CC(C)(C)C)Cc1cccc2ccccc12 [TERBINAFINE],logP,> 5
Nc1nc2c(ncn2COCCO)c(=O)[nH]1 [ACYCLOVIR],logP,1 to 4

# — ChEMBL document CHEMBL4622856, “Essential Medicinal Chemistry of Essential Medicines” (J Med Chem, 2020)
